This note sets out measurements from patent publication US10800807B2, “TGR5 modulators and methods of use thereof” (Intercept Pharmaceuticals, Inc., priority 2015, dated 2020).

Residue numbers refer to the chain shown, from its start. Read-outs that look alike come from different tables or passages of the source.

For orientation: EC50 means the midpoint of the concentration-response curve.

Test [1] deals with T1, TGR5 (Homo sapiens, UniProt Q8TDU6).
T1 sequence (Q8TDU6 1-330): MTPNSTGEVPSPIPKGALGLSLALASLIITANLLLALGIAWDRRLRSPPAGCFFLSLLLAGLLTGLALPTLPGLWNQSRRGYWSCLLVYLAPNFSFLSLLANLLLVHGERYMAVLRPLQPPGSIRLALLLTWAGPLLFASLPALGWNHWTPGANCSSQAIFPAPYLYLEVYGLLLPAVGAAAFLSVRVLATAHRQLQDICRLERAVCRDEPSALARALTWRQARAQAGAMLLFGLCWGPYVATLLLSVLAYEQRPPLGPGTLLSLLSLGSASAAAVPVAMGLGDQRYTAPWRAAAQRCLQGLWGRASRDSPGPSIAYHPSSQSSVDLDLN
The test is described as follows: TGR5 activity: cAMP in hTGR5 CHO-k1 cells. In kind it is cell-based. Also noted: expressed in transfected cells; host or cells: CHO-k1. The settings on record: for Emax: 0.5 h, read-out: hTGR5 CHO Efficacy; for EC50: cAMP.

The target of test [2] is T2, mouse glutathione transferase-tagged FXR-LBD (Mus musculus, UniProt Q60641).
T2 construct: mouse glutathione transferase-tagged FXR-LBD (generated in-house); made in house
T2 sequence (Q60641 264-488 limits assumed): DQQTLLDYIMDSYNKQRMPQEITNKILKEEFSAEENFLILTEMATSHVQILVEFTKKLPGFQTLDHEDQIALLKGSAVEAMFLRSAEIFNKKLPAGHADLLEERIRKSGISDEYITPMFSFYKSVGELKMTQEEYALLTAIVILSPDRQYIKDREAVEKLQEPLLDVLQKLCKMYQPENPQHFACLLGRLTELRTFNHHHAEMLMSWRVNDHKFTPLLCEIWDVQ
The test is described as follows: FXR AlphaScreen coactivator recruitment assay (mouse). Type of test: biochemical. The conditions noted are these: for EC50: read-out: (mFXR) EC50; for Emax: read-out: (mFXR) Efficacy. The method, then:
(§1) Activation of the FXR receptor was determined using a recruitment coactivator assay, namely AlphaScreen technology. The assays were performed using human glutathione transferase-tagged FXR-LBD (Life Technologies, USA) and mouse glutathione transferase-tagged FXR-LBD (generated in-house). Briefly, assays were conducted in white, low-volume, 384-well OptiPlate using a final volume of 25 μL containing 10 nM glutathione transferase-tagged FXR-LBD protein and 30 nM biotinylated Src-1 peptide. The stimulation was carried out with different BA concentrations for 30 minutes at 25° C. […] Dose-response curves were performed in triplicate and Z′ factor was used to validate the robustness of the assay.
In general terms: Alpha assays give light when donor and acceptor beads are brought close together.

In test [3] the target is T3, human glutathione transferase-tagged FXR-LBD (Homo sapiens, UniProt Q96RI1).
T3 construct: human glutathione transferase-tagged FXR-LBD (Life Technologies, USA); purchased Life Technologies, USA
T3 sequence (Q96RI1 262-486 limits assumed): T2 sequence (Q60641 264-488 limits assumed) with D7H, Y8F, S46N, I50V, A95S, A98S, K107N, V125I, M174I, Y175H
The test is described as follows: FXR AlphaScreen coactivator recruitment assay (human).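 As to hFXR Efficacy: CDCA at 50 µM taken as 100%.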 The settings on record: for EC50: human FXR-LBD, AlphaScreen, read-out: hFXR EC50; for Emax: read-out: hFXR Efficacy. Set-up: Emax: dose or concentration left out as unconfirmed. In kind it is biochemical. The protocol:
as §1

The target of test [4] is T1, TGR5. In words: TGR5 activity: intracellular cAMP levels, NCI-H716 cells (HTR-FRET). Set-up: endogenous in cells; host or cells: NCI-H716. The conditions noted are these: for Emax: read-out: TGR5 (NCI-H716) Efficacy; for EC50: cAMP. In kind it is cell-based. The protocol:
Activation of TGR5 was assessed by measuring the level of cAMP using an HTR-FRET assay. Thus, NCI-H716 cells were cultured on 96-well plates coated with Matrigel (Corning, USA) (0.75 mg/ml) in DMEM supplemented with 10% FCS, 100 units/ml penicillin, and 100 μg/ml streptomycin sulphate. […] The level of intracellular cAMP was determined with Lance kit. Z′ factor was used to validate assays.
Background: Changes in cAMP serve as a functional read-out for many G protein-coupled receptors.

In another test the target is T4, mTGR5 (Mus musculus, UniProt Q80SS6).
T4 construct: expressed in transfected cells; host or cells: CHO-Pi10 clone 4
T4 sequence (Q80SS6 1-329): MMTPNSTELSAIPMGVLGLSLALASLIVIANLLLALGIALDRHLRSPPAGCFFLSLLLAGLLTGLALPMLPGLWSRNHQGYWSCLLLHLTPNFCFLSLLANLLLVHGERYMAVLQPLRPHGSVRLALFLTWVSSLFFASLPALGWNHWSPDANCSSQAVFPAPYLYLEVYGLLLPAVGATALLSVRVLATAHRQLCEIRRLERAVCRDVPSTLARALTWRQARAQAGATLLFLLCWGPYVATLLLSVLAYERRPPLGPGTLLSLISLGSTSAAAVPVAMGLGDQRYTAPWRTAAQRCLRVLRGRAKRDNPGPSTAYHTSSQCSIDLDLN
The test is described as follows: TGR5 activity: cAMP in mTGR5 CHO-Pi10 clone 4 cells. In kind it is cell-based. The conditions noted are these: for Emax: 0.5 h, read-out: (mTGR5 CHO) Efficacy.

Where [5] appears, read: hTGR5 CHO cells, Ref. LCA 100% at 10 μM.
The mark [6] stands for this setting: mouse FXR-LBD, value in parentheses.
Setting [7] is: 1 h, NCI-H716 cells, Ref. LCA 100% at 10 μM.
[8] abbreviates: mTGR5 CHO cells, value in parentheses.

With `CC[C@H]1[C@@H](O)[C@@H]2[C@H](C[C@H](O)[C@]3(C)[C@@H]([C@H](C)C[C@H](O)C(=O)O)CC[C@@H]23)[C@@]2(C)CC[C@@H](O)C[C@@H]12` [Compound 1, 3α,7α,12α,23(S)-tetrahydroxy-6α-ethyl-5β-cholan-24-oic acid], the Emax came out at 103 ± 1% at TGR5 [1] (setting [5]); 9% in test [2] (setting [6]); 52% in test [3]; 40% on TGR5 [4] (setting [7]); 115% at mTGR5 (setting [8]). For the same compound, the EC50 at TGR5 [1] (hTGR5 CHO cells) was found to be 3500 ± 1500 nM; in test [2] (setting [6]) it was 146 µM; in test [3] it was 32 ± 8 µM; at TGR5 [4] (NCI-H716 cells), 19 µM; at mTGR5 (setting [8]), 700 nM.
With `CC[C@H]1[C@@H](O)[C@@H]2[C@H](C[C@H](O)[C@]3(C)[C@@H]([C@H](C)C[C@@H](O)C(=O)O)CC[C@@H]23)[C@@]2(C)CC[C@@H](O)C[C@@H]12` [Compound 2, 3α,7α,12α,23(R)-tetrahydroxy-6α-ethyl-5β-cholan-24-oic acid], the Emax at TGR5 [1] (setting [5]) came out at 47.5 ± 2.5%; in test [2] (setting [6]), 61%; in test [3], 200%; on TGR5 [4] (setting [7]), 55%; at mTGR5 (setting [8]), 93.5%. In addition, the EC50 on TGR5 [1] (hTGR5 CHO cells) amounted to 17000 ± 2000 nM; in test [2] (setting [6]), 84 µM; in test [3], 20 ± 9 µM; at TGR5 [4] (NCI-H716 cells) it was 12 µM; at mTGR5 (setting [8]) it was 1500 nM.
In the case of `CC[C@H]1[C@@H](O)C2C3CC[C@H]([C@H](C)C[C@H](CO)C(=O)O)[C@@]3(C)[C@@H](O)CC2[C@@]2(C)CC[C@@H](O)C[C@@H]12` (stereo partly drawn) [Compound 5, 3α,7α,12α-Trihydroxy-6α-ethyl-23(B)-hydroxymethyl-5β-cholan-24-oic acid], the Emax at TGR5 [1] (CHO) worked out at 43.6%; in test [3] it was 37%; on mTGR5 (CHO) it was 84.6%. Further, the EC50 on TGR5 [1] (hTGR5 CHO cells) was determined as 21000 nM; in test [3], 20 µM; at mTGR5 (setting [8]), 3400 nM.
With `CC[C@H]1[C@@H](O)[C@@H]2[C@H](C[C@H](O)[C@]3(C)[C@@H]([C@H](C)C[C@@H](CF)C(=O)O)CC[C@@H]23)[C@@]2(C)CC[C@@H](O)C[C@@H]12` [Compound 6, 3α,7α,12α-Trihydroxy-6α-ethyl-23(A)-fluoromethyl-fluoromethyl-5β-cholan-24-oic acid], the Emax on TGR5 [1] (CHO) was determined as 28%; on mTGR5 (CHO), 81%. Besides, the EC50 on TGR5 [1] (hTGR5 CHO cells) was 29500 nM; in test [3], above 100 µM; at mTGR5 (setting [8]), 3800 nM.
In the case of `CC[C@H]1[C@@H](O)[C@@H]2[C@H](C[C@H](O)[C@]3(C)[C@@H]([C@H](C)C[C@H](CF)C(=O)O)CC[C@@H]23)[C@@]2(C)CC[C@@H](O)C[C@@H]12` [Compound 7, 3α,7α,12α-Trihydroxy-6α-ethyl-23(A)-fluoromethyl-fluoromethyl-5β-cholan-24-oic acid], the Emax worked out at 27% on TGR5 [1] (setting [5]), 83% in test [3] and 119% at mTGR5 (setting [8]). For the same compound, the EC50 at TGR5 [1] (hTGR5 CHO cells) worked out at 7900 nM; in test [3], 13 µM; on mTGR5 (setting [8]), 2000 nM.
With `CC[C@@H]1C2C[C@H](O)CC[C@]2(C)C2CC[C@@]3(C)C(CC[C@@H]3[C@H](C)Cc3nn[nH]n3)C2[C@@H]1O` (stereo partly drawn) [Compound 13], the Emax on TGR5 [1] (setting [5]) is 102 ± 3%; in test [2] (setting [6]), 208%; in test [3] it was 138%; on TGR5 [4] (setting [7]) it was 84 ± 14%; on mTGR5 (setting [8]), 90%. In addition, the EC50 at TGR5 [1] (hTGR5 CHO cells) was determined as 1000 ± 100 nM; in test [2] (setting [6]), 1.4 µM; in test [3], 0.43 µM; at TGR5 [4] (NCI-H716 cells) it was 6.4 ± 1.1 µM; on mTGR5 (setting [8]), 2300 nM.
Consider `CC[C@H]1[C@@H](O)C2C3CC[C@H]([C@H](C)CCc4noc(=O)[nH]4)[C@@]3(C)CCC2[C@@]2(C)CC[C@@H](O)C[C@@H]12` (stereo partly drawn) [Compound 16, 3α,7α-Dihydroxy-6α-ethyl-24-nor-5β-23([1,2,4]-oxadiazole-3-one-5-yl)-cholane], for which the Emax at TGR5 [1] (setting [5]) is 99 ± 4%; in test [2] (setting [6]), 204%; in test [3] it was 165 ± 19%; at TGR5 [4] (setting [7]) it was 116 ± 9%; on mTGR5 (setting [8]) it was 99%. Also, the EC50 at TGR5 [1] (hTGR5 CHO cells) was 1200 ± 100 nM; in test [2] (setting [6]), 6.6 µM; in test [3] it was 0.15 ± 0.05 µM; at TGR5 [4] (NCI-H716 cells), 3 ± 0.3 µM; at mTGR5 (setting [8]), 440 nM.
With `CC[C@H]1[C@@H](O)[C@@H]2[C@H](CC[C@]3(C)[C@@H]([C@H](C)CCc4nc(=O)o[nH]4)[C@@H](O)C[C@@H]23)[C@@]2(C)CC[C@@H](O)C[C@@H]12` [Compound 18], the Emax came to 104 ± 1% at TGR5 [1] (setting [5]); 150% in test [2] (setting [6]); 132 ± 8% in test [3]; 115 ± 4% at TGR5 [4] (setting [7]); 101% on mTGR5 (setting [8]). The EC50 was 110 ± 30 nM on TGR5 [1] (hTGR5 CHO cells); 2.3 µM in test [2] (setting [6]); 0.55 ± 0.03 µM in test [3]; 1.8 ± 0.2 µM at TGR5 [4] (NCI-H716 cells); 370 nM on mTGR5 (setting [8]).
As for `CC[C@H]1[C@@H](O)C2C3CC[C@H]([C@H](C)CC(=O)NO)[C@@]3(C)CCC2[C@@]2(C)CC[C@@H](O)C[C@@H]12` (stereo partly drawn) [Compound 20], the Emax on TGR5 [1] (setting [5]) came out at 109 ± 5%; in test [2] (setting [6]), 85%; in test [3], 122 ± 3%; on TGR5 [4] (setting [7]) it was 148 ± 1%; at mTGR5 (setting [8]), 101%. The EC50 was 300 ± 140 nM on TGR5 [1] (hTGR5 CHO cells); 16 µM in test [2] (setting [6]); 8.7 ± 0.04 µM in test [3]; 0.7 ± 0.1 µM at TGR5 [4] (NCI-H716 cells); 500 nM at mTGR5 (setting [8]).
For `CC[C@H]1[C@@H](O)C2C3CC[C@H]([C@H](C)CCc4nnc(NS(C)(=O)=O)o4)[C@@]3(C)CCC2[C@@]2(C)CC[C@@H](O)C[C@@H]12` (stereo partly drawn) [Compound 23, 2-(3α,7α-Dihydroxy-6α-ethyl-5β-cholan-24-nor-23-cholanyl)-5-methylsulfonamido-1,3,4-oxadiazole], the Emax at TGR5 [1] (CHO) was 111 ± 2%; in test [2], 342%; in test [3] it was 175 ± 22%; at TGR5 [4] (NCI-H716, 1 h), 75 ± 1%; on mTGR5 (CHO), 110%. Also, the EC50 came to 1300 ± 100 nM at TGR5 [1] (hTGR5 CHO cells); 0.33 µM in test [2] (setting [6]); 0.1 ± 0.02 µM in test [3]; 12.5 ± 1.5 µM at TGR5 [4] (NCI-H716 cells); 1400 nM at mTGR5 (setting [8]).
